Experiments:
[1] = tested on: arterial pressure; assay: Acute experiments on narcotized cats: reduction of arterial pressure (intravenous); format: in vivo; conditions: for ED30: Felis catus, read-out: ED30 (average dose that reduces the arterial pressure by 30%)
Description: In acute experiments on cats narcotized with glucochloralose and urethane (90 and 200 mg/kg, respectively, administered intraperitoneally), there were recorded arterial pressure from the common carotid artery, respiration and an ECG with standard lead II. The compounds under study were administered intravenously as a dimethylacetamide solution.
(§1) Average doses of the compounds under study that
(§2) reduce the arterial pressure in narcotized animals by 30%

[2] = tested on: vertebral artery; assay: Blood circulation rate in vertebral artery of narcotized dogs; format: in vivo; conditions: intravenous
[3] = tested on: carotid artery; assay: Blood circulation rate in carotid artery of narcotized dogs; format: in vivo; conditions: intravenous
[4] = tested on: coronary artery; assay: Blood circulation rate in coronary artery of narcotized dogs; format: in vivo; conditions: intravenous
[5] = tested on: femoral artery; assay: Blood circulation rate in femoral artery of narcotized dogs; format: in vivo; conditions: intravenous
[6] = tested on: cerebral vessels; conditions: background art; cited from earlier work
[7] = in vivo; conditions: mouse, ip
Description: Acute toxicity of the compounds involved compared
with the known drugs tested on albino mice
(intraperitoneal administration)

[8] = tested on: systolic arterial pressure; assay: Hypotensive effect in spontaneously hypertensive rats (SHR), oral; format: in vivo; conditions: for Hypotensive effect compared with Niphedipin / Hypotensive potency: 3 and 10 mg/kg
[9] = background art, occasionally; cited from earlier work
[10] = tested on: arterial pressure; assay: Hypotensive activity in narcotized rats: reduction of arterial pressure; format: in vivo; conditions: Rattus norvegicus; narcotized rats (urethane); read-out: ED30 (average dose that reduces the arterial pressure by 30%)
Description: as §1, §2

[11] = tested on: arteries supplying blood to the heart and brain; assay: Systolic arterial pressure and blood circulation in arteries of heart and brain of narcotized dogs; format: in vivo; conditions: intravenous

SMILES: COC(=O)C1=C(C)NC(C)=C(C(=O)OCCN(C)Cc2ccccc2)C1c1cccc([N+](=O)[O-])c1.Cl (stereo not drawn) [Nicardipin, 2,6-dimethyl-3-methoxy-carbonyl-4-(3-nitrophenyl)-5-[2(N-benzyl-N-methylamino)ethoxycarbonyl]-1,4-dihydropyridine hydrochloride, reference compound]
- Persistence of hypotensive effect [1]: 8 min
- ED30 [1]: 0.025 mg/kg
- Blood circulation rate in vertebral artery, percentage increase ([2]; 0.001 mg/kg): 14%
- Blood circulation rate in vertebral artery, persistence ([2]; 0.001 mg/kg): 6 min
- Blood circulation rate in vertebral artery, percentage increase ([2]; 0.002 mg/kg): 40%
- Blood circulation rate in vertebral artery, persistence ([2]; 0.002 mg/kg): 20 min
- Blood circulation rate in carotid artery, percentage increase ([3]; 0.001 mg/kg): 14%
- Blood circulation rate in carotid artery, persistence ([3]; 0.001 mg/kg): 6 min
- Blood circulation rate in carotid artery, percentage increase ([3]; 0.002 mg/kg): 60%
- Blood circulation rate in carotid artery, persistence ([3]; 0.002 mg/kg): 12 min
- Blood circulation rate in coronary artery, percentage increase ([4]; 0.001 mg/kg): 12%
- Blood circulation rate in coronary artery, persistence ([4]; 0.001 mg/kg): 5 min
- Blood circulation rate in coronary artery, percentage increase ([4]; 0.002 mg/kg): 30%
- Blood circulation rate in coronary artery, persistence ([4]; 0.002 mg/kg): 12 min
- Blood circulation rate in femoral artery, percentage increase ([5]; 0.001 mg/kg): 10%
- Blood circulation rate in femoral artery, persistence ([5]; 0.001 mg/kg): 5 min
- Blood circulation rate in femoral artery, percentage increase ([5]; 0.002 mg/kg): 26%
- Blood circulation rate in femoral artery, persistence ([5]; 0.002 mg/kg): 10 min
- Activity [6]: inadequate activity
- Vasodilation activity [6]: vasodilation activity preponderantly towards cerebral vessels
- LD50 [7]: 225 mg/kg

SMILES: COC(=O)C1=C(C)NC(C)=C(C(=O)OC)C1c1ccccc1[N+](=O)[O-] [Niphedipin, 2,6-dimethyl-3,5-dimethoxycarbonyl-4-(2-nitrophenyl)-1,4-dihydropyrine, reference compound]
- Persistence of hypotensive effect [1]: 6 min
- ED30 [1]: 0.02 mg/kg
- Tachycardia [8]: tachycardia
- Side effects [9]: dizziness and nausea

SMILES: CCOCCOC(=O)C1=C(C)NC(C)=C(C(=O)OCCOCC)C1c1ccccc1OC(F)F [R = C2 H4 OC2 H5, 2,6-dimethyl-3,5-bis-(2-ethoxyethoxycarbonyl)-4-(2-difluoromethoxyphenyl)-1,4-dihydropyridine]
- Persistence of hypotensive effect [1]: 6 min
- ED30 [1]: 0.01 mg/kg
- ED30 [10]: 0.018 mg/kg
- Tachycardia [8]: not causative of tachycardia
- Hypotensive effect compared with Niphedipin [8]: does not differ substantially
- Hypotensive potency [8]: most markedly pronounced hypotensive potency
- LD50 [7]: 2200 mg/kg

SMILES: CCCOCCOC(=O)C1=C(C)NC(C)=C(C(=O)OCCOCCC)C1c1ccccc1OC(F)F [R = C2 H4 OC3 H7, 2,6-dimethyl-3,5-bis-(2-propoxyethoxycarbonyl)-4-(2-difluoromethoxyphenyl)-1,4-dihydropyridine]
- Persistence of hypotensive effect [1]: 7 min
- ED30 [1]: 0.0045 mg/kg
- ED30 [10]: 0.008 mg/kg
- Blood circulation rate in vertebral artery, percentage increase ([2]; 0.0005 mg/kg): 20%
- Blood circulation rate in vertebral artery, persistence ([2]; 0.0005 mg/kg): 8 min
- Blood circulation rate in vertebral artery, percentage increase ([2]; 0.001 mg/kg): 90%
- Blood circulation rate in vertebral artery, persistence ([2]; 0.001 mg/kg): 18 min
- Blood circulation rate in vertebral artery, percentage increase ([2]; 0.002 mg/kg): 110%
- Blood circulation rate in vertebral artery, persistence ([2]; 0.002 mg/kg): 20 min
- Blood circulation rate in carotid artery, percentage increase ([3]; 0.0005 mg/kg): 17%
- Blood circulation rate in carotid artery, persistence ([3]; 0.0005 mg/kg): 5 min
- Blood circulation rate in carotid artery, percentage increase ([3]; 0.001 mg/kg): 60%
- Blood circulation rate in carotid artery, persistence ([3]; 0.001 mg/kg): 15 min
- Blood circulation rate in carotid artery, percentage increase ([3]; 0.002 mg/kg): 100%
- Blood circulation rate in carotid artery, persistence ([3]; 0.002 mg/kg): 20 min
- Blood circulation rate in coronary artery, percentage increase ([4]; 0.0005 mg/kg): 10%
- Blood circulation rate in coronary artery, persistence ([4]; 0.0005 mg/kg): 5 min
- Blood circulation rate in coronary artery, percentage increase ([4]; 0.001 mg/kg): 30%
- Blood circulation rate in coronary artery, persistence ([4]; 0.001 mg/kg): 8 min
- Blood circulation rate in coronary artery, percentage increase ([4]; 0.002 mg/kg): 50%
- Blood circulation rate in coronary artery, persistence ([4]; 0.002 mg/kg): 12 min
- Blood circulation rate in femoral artery, percentage increase ([5]; 0.0005 mg/kg): 0%
- Blood circulation rate in femoral artery, percentage increase ([5]; 0.001 mg/kg): 10%
- Blood circulation rate in femoral artery, persistence ([5]; 0.001 mg/kg): 8 min
- Blood circulation rate in femoral artery, percentage increase ([5]; 0.002 mg/kg): 25%
- Blood circulation rate in femoral artery, persistence ([5]; 0.002 mg/kg): 10 min
- Intensity and duration of effect on blood circulation rate compared with Nicardipin [11]: much more potent
- Hypotensive effect compared with Niphedipin [8]: does not differ substantially
- Hypotensive potency [8]: most markedly pronounced hypotensive potency
- LD50 [7]: 450 mg/kg

SMILES: CC1=C(C(=O)OCCOc2ccccc2)C(c2ccccc2OC(F)F)C(C(=O)OCCOc2ccccc2)=C(C)N1 [R = C2 H4 OC6 H5, 2,6-dimethyl-3,5-bis-(2phenoxyethoxycarbonyl)-4-(2difluoromethoxyphenyl)-1,4-dihydropyridine]
- Persistence of hypotensive effect [1]: 7 min
- ED30 [1]: 0.02 mg/kg
- ED30 [10]: 0.03 mg/kg
- Hypotensive effect compared with Niphedipin [8]: does not differ substantially
- Hypotensive potency [8]: most markedly pronounced hypotensive potency
- LD50 [7]: 790 mg/kg

SMILES: COCCOC(=O)C1=C(C)NC(C)=C(C(=O)OCCOC)C1c1ccccc1OC(F)F [R = C2 H4 OCH3, 2,6-dimethyl-3,5-bis-(2-methoxyethoxycarbonyl)-4-(2-difluoromethoxyphenyl)-1,4-dihydropyridine]
- Persistence of hypotensive effect [1]: 3 min
- ED30 [1]: 0.045 mg/kg
- ED30 [10]: 0.04 mg/kg
- LD50 [7]: 1130 mg/kg

SMILES: COCC(C)OC(=O)C1=C(C)NC(C)=C(C(=O)OC(C)COC)C1c1ccccc1OC(F)F (stereo not drawn) [R = CH(CH3)CH2 OCH3, 2,6-dimethyl-3,5-bis-[(1-methyl-2-methoxy)-ethoxycarbonyl]-4-(2-difluoromethoxyphenyl)-1,4-dihydropyridine]
- Persistence of hypotensive effect [1]: 10 min
- ED30 [1]: 0.038 mg/kg
- LD50 [7]: 2500 mg/kg
